Measured values taken from patent US12590062B2, “PD-1/PD-L1 inhibitors” (Gilead Sciences, Inc., priority 2017, dated 2026).

Target: PD-1/PD-L1 (Homo sapiens, UniProt Q9NZQ7)
Assay: PD-1/PD-L1 biochemical protein-protein interaction assay (ALPHA)
Type: binding
Details: 0.3 nM His tagged PD-L1, 2.5 nM biotinylated Fc-PD-1, 60 minutes at 25° C., read-out: IC50 PD-L1-PD-1 Alpha IC50-mono PD-L1-fcP-D1
Protocol: Biological Activity PD-1/PD-L1 & CTLA/CD80 Biochemical Protein-Protein Interaction Assay
Compounds were tested in biochemical protein-protein interaction assays to determine if they can specifically block the interaction between the extracellular domains of PD-1/PD-L1 or CTLA/CD80. Binding of the protein pairs is measured using a bead based Amplified Luminescent Proximity Homogeneous Assay (ALPHA) platform. Binding of each protein pair results in proximity of the donor and acceptor beads which leads to an increase in ALPHA signal. Disruption of the protein-protein interaction with a test compound results in a decrease in ALPHA signal. Assays are performed in 25 mM Hepes (pH 7.4), 150 mM NaCl, 3.4 mM EDTA, 0.005% Tween 20, and 0.01% BSA. Final protein concentration in the assays were 0.3 nM (His tagged PD-L1), 2.5 nM (biotinylated Fc-PD-1), 1 nM (His tagged CTLA4) and 1 nM (biotinylated CD80). After an assay reaction time of 60 minutes at 25° C., binding was measured with addition of 20 μg/mL ALPHA assay acceptor beads (anti-His coated) and […] ALPHA assay donor beads (streptavidin coated). IC50 values were calculated from the fit of the dose-response curves to a four-parameter equation. Representative data are shown below in Table 1.

Chain of PD-1/PD-L1 (Q9NZQ7 19-238 limits assumed): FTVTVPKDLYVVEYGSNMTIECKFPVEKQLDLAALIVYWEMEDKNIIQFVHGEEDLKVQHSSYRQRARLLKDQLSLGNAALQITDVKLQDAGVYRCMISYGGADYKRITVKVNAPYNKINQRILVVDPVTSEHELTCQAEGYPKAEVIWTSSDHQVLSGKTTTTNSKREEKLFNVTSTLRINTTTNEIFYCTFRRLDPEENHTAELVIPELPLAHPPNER

Row | IC50 [µM] | SMILES
1 | 0.000143 | Cc1c(COc2cc(OCc3cncc(C#N)c3)c(CNCCO)cc2Cl)cccc1-c1cccc(-c2ccc(CNCCCC(=O)O)cc2)c1C [Example 334, 4-(((3″-((2-chloro-5-((5-cyanopyridin-3-yl)methoxy)-4-(((2-hydroxyethyl)amino)methyl)phenoxy)methyl)-2′,2″-dimethyl-[1,1′:3′,1″-terphenyl]-4-yl)methyl)amino)butanoic acid]

Target: T1, PD-1/PD-L1 interaction (Homo sapiens, UniProt Q9NZQ7)
T1 construct: expressed in transfected cells; host or cells: CHO cells (aAPC-PD-L1) co-cultured with Jurkat cells overexpressing PD-1 and an NFAT-luciferase reporter
T1 sequence (Q9NZQ7 19-290): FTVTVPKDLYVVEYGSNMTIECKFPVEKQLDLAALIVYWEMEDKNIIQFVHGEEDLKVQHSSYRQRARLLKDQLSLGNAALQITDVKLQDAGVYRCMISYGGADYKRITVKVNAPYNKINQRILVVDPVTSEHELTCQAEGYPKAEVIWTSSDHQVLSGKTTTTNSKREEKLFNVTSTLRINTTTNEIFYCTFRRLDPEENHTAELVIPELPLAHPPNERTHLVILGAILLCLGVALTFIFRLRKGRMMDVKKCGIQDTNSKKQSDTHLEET
Assay: PD-1/PD-L1 NFAT reporter co-culture assay
Type: cell-based
Details: Jurkat PD-1 NFAT-luciferase cells co-cultured with aAPC-PD-L1 CHO cells, 6 hrs at 37° C.; read-out: EC50 NFAT Luciferase
How it was run: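 First, CHO cells displaying anti-CD3 antibody and PD-L1 were plated overnight. Next, compound-treated PD-1 Jurkat NFAT-luciferase reporter cells in 2% FBS RPMI were added for 6 h at 37 °C. Finally, ONE-Glo luminescence was read and EC50 values fitted with a four-parameter equation.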

Row | EC50 [µM] | SMILES
2 | 0.821 | COc1nc(OCc2cccc(-c3cccc(COc4nc(OC)c(CN[C@H]5CCC[C@@H]5O)cc4Cl)c3C)c2C)c(Cl)cc1CN[C@H]1CCC[C@@H]1O [Example 230, (1S,1′S,2S,2′S)-2,2′-((((((2,2′-dimethyl-[1,1′-biphenyl]-3,3′-diyl)bis(methylene))bis(oxy))bis(5-chloro-2-methoxypyridine-6,3-diyl))bis(methylene))bis(azanediyl))bis(cyclopentan-1-ol)]
3 | 11.6 | COc1nc(OCc2cccc(-c3cccc(COc4nc(OC)c(CN5CCOC[C@H]5C(=O)O)cc4Cl)c3C)c2C)c(Cl)cc1CN1CCOC[C@H]1C(=O)O [Example 233, (3S,3′S)-4,4′-(((((2,2′-dimethyl-[1,1′-biphenyl]-3,3′-diyl)bis(methylene))bis(oxy))bis(5-chloro-2-methoxypyridine-6,3-diyl))bis(methylene))bis(morpholine-3-carboxylicacid)]
4 | ≥ 50 | COc1nc(OCc2cccc(-c3cccc(COc4nc(OC)c(CN5CCOC(C(=O)O)C5)cc4Cl)c3C)c2C)c(Cl)cc1CN1CCOC(C(=O)O)C1 (stereo not drawn) [Example 235]
5 | ≥ 50 | COc1nc(OCc2cccc(-c3cccc(COc4nc(OC)c(C(=O)NC[C@@H](O)CC(=O)O)cc4Cl)c3C)c2C)c(Cl)cc1C(=O)NC[C@@H](O)CC(=O)O [Example 237, (3S,3′S)-4,4′-((6,6′-(((2,2′-dimethyl-[1,1′-biphenyl]-3,3′-diyl)bis(methylene))bis(oxy))bis(5-chloro-2-methoxynicotinoyl))bis(azanediyl))bis(3-hydroxybutanoic acid)]
6 | 0.39 | COc1nc(OCc2cccc(-c3cccc(COc4nc(OC)c(CN5CC[C@H](O)C5)cc4Br)c3C)c2C)c(Br)cc1CN1CC[C@H](O)C1 [Example 244, (3S,3′S)-1,1′-(((((2,2′-dimethyl-[1,1′-biphenyl]-3,3′-diyl)bis(methylene))bis(oxy))bis(5-bromo-2-methoxypyridine-6,3-diyl))bis(methylene))bis(pyrrolidin-3-ol)]
7 | 0.776 | COc1nc(OCc2cccc(-c3cccc(COc4nc(OC)c(CN5CC[C@@H](O)C5)cc4Br)c3C)c2C)c(Br)cc1CN1CC[C@@H](O)C1 [Example 247, (3R,3′R)-1,1′-(((((2,2′-dimethyl-[1,1′-biphenyl]-3,3′-diyl)bis(methylene))bis(oxy))bis(5-bromo-2-methoxypyridine-6,3-diyl))bis(methylene))bis(pyrrolidin-3-ol)]
8 | ≥ 50 | COc1nc(OCc2cccc(-c3cccc(COc4nc(OC)c(C5COCCN5)cc4Br)c3C)c2C)c(Br)cc1C1COCCN1 (stereo not drawn) [Example 249, 3,3′-((((2,2′-dimethyl-[1,1′-biphenyl]-3,3′-diyl)bis(methylene))bis(oxy))bis(5-bromo-2-methoxypyridine-6,3-diyl))dimorpholine]
9 | ≥ 50 | COc1nc(OCc2cccc(-c3cccc(COc4nc(OC)c(CN5CC(O)C5)cc4Br)c3C)c2C)c(Br)cc1CN1CC(O)C1 [Example 255, 1,1′-(((((2,2′-dimethyl-[1,1′-biphenyl]-3,3′-diyl)bis(methylene))bis(oxy))bis(5-bromo-2-methoxypyridine-6,3-diyl))bis(methylene))bis(azetidin-3-ol)]
10 | 0.758 | CNC(=O)C1CN(Cc2cc(Br)c(OCc3cccc(-c4cccc(COc5nc(OC)c(CN6CC(C(=O)NC)C6)cc5Br)c4C)c3C)nc2OC)C1 [Example 256, 1,1′-(((((2,2′-dimethyl-[1,1′-biphenyl]-3,3′-diyl)bis(methylene))bis(oxy))bis(5-bromo-2-methoxypyridine-6,3-diyl))bis(methylene))bis(N-methylazetidine-3-carboxamide)]
11 | 0.463 | Cc1c(COc2cc(OCc3cncc(C#N)c3)c(CN3CC[C@H]3CO)cc2Br)cccc1-c1cccc(COc2cc(OCc3cncc(C#N)c3)c(CN3CC[C@H]3CO)cc2Br)c1C [Example 260, 5,5′-((((((2,2′-dimethyl-[1,1′-biphenyl]-3,3′-diyl)bis(methylene))bis(oxy))bis(4-bromo-6-(((S)-2-(hydroxymethyl)azetidin-1-yl)methyl)-3,1-phenylene))bis(oxy))bis(methylene))dinicotinonitrile]
12 | 1.29 | COc1nc(OCc2cccc(-c3cccc(COc4nc(OC)c(CNCCN5CCCS5(=O)=O)cc4Br)c3C)c2C)c(Br)cc1CNCCN1CCCS1(=O)=O [Example 264, 2,2′-(((((((2,2′-dimethyl-[1,1′-biphenyl]-3,3′-diyl)bis(methylene))bis(oxy))bis(5-bromo-2-methoxypyridine-6,3-diyl))bis(methylene))bis(azanediyl))bis(ethane-2,1-diyl))bis(isothiazolidine 1,1-dioxide)]
13 | 1.38 | COc1nc(OCc2cccc(-c3cccc(COc4nc(OC)c(CNCCNS(C)(=O)=O)cc4Br)c3C)c2C)c(Br)cc1CNCCNS(C)(=O)=O [Example 266, N,N′-(((((((2,2′-dimethyl-[1,1′-biphenyl]-3,3′-diyl)bis(methylene))bis(oxy))bis(5-bromo-2-methoxypyridine-6,3-diyl))bis(methylene))bis(azanediyl))bis(ethane-2,1-diyl))dimethanesulfonamide]
14 | 0.993 | COc1nc(OCc2cccc(-c3cccc(COc4nc(OC)c(CN(C)CCN5CCOCC5)cc4Br)c3C)c2C)c(Br)cc1CN(C)CCN1CCOCC1 [Example 268, N,N′-(((((2,2′-dimethyl-[1,1′-biphenyl]-3,3′-diyl)bis(methylene))bis(oxy))bis(5-bromo-2-methoxypyridine-6,3-diyl))bis(methylene))bis(N-methyl-2-morpholinoethan-1-amine)]
15 | ≥ 50 | COc1nc(OCc2cccc(-c3cccc(COc4nc(OC)c(CN5CCNC(=O)C5)cc4Br)c3C)c2C)c(Br)cc1CN1CCNC(=O)C1 [Example 270, 4,4′-(((((2,2′-dimethyl-[1,1′-biphenyl]-3,3′-diyl)bis(methylene))bis(oxy))bis(5-bromo-2-methoxypyridine-6,3-diyl))bis(methylene))bis(piperazin-2-one)]
16 | 1.2 | CNC(=O)[C@](C)(CO)NCc1cc(Br)c(OCc2cccc(-c3cccc(COc4nc(OC)c(CN[C@@](C)(CO)C(=O)NC)cc4Br)c3C)c2C)nc1OC [Example 274, (2S,2′S)-2,2′-((((((2,2′-dimethyl-[1,1′-biphenyl]-3,3′-diyl)bis(methylene))bis(oxy))bis(5-bromo-2-methoxypyridine-6,3-diyl))bis(methylene))bis(azanediyl))bis(3-hydroxy-N,2-dimethylpropanamide)]
17 | ≥ 50 | Cc1c(OC(F)(F)c2ccc(CNCC(=O)O)cc2)cccc1-c1cccc(OC(F)(F)c2ccc(CNCC(=O)O)cc2)c1C [Example 278, 2,2′-((((((2,2′-dimethyl-[1,1′-biphenyl]-3,3′-diyl)bis(oxy))bis(difluoromethylene))bis(4,1-phenylene))bis(methylene))bis(azanediyl))diacetic acid]
18 | 1.46 | Cc1c(COc2cc(OCc3cccc(C#N)c3)c(CNCCO)cc2Cl)cccc1-c1cccc(COc2cc(OCc3cccc(C#N)c3)c(CNCCO)cc2Cl)c1C [Example 284, 3,3′-((((((2,2′-dimethyl-[1,1′-biphenyl]-3,3′-diyl)bis(methylene))bis(oxy))bis(4-chloro-6-(((2-hydroxyethyl)amino)methyl)-3,1-phenylene))bis(oxy))bis(methylene))dibenzonitrile]
19 | 9.69 | COc1nc(OCc2cccc(-c3cccc(COc4ccc(CNC[C@@H](O)CC(=O)O)c(OC)n4)c3F)c2C)ccc1CNC[C@@H](O)CC(=O)O [Example 285, (3S,3′S)-4,4′-((((((2-fluoro-2′-methyl-[1,1′-biphenyl]-3,3′-diyl)bis(methylene))bis(oxy))bis(2-methoxypyridine-6,3-diyl))bis(methylene))bis(azanediyl))bis(3-hydroxybutanoic acid)]
20 | 0.232 | Cc1c(COc2cc(OCc3cncc(C#N)c3)c(CNC[C@@H](O)CC(=O)O)cc2Cl)cccc1-c1cccc(-c2nc3ccc(CNC[C@@H](O)CC(=O)O)cc3s2)c1C [Example 286, (S)-4-(((2-(3′-((4-((((S)-3-carboxy-2-hydroxypropyl)amino)methyl)-2-chloro-5-((5-cyanopyridin-3-yl)methoxy)phenoxy)methyl)-2,2′-dimethyl-[1,1′-biphenyl]-3-yl)benzo[d]thiazol-6-yl)methyl)amino)-3-hydroxybutanoic acid]
21 | 0.051 | Cc1c(COc2nc(OCc3cc(C#N)cc(C#N)c3)c(CNC[C@@H](O)CC(=O)O)cc2Cl)cccc1-c1cccc(-c2ccc(OCCNCCO)cc2)c1C [Example 472]
